System: MPNST complex spheroid with HUVEC/MSC, growth, % test/control
Assay: Anticancer human tumor MPNST cell line growth inhibition [Asc];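 also: compounds left on spheroids for seven days before reading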
Settings: for IC50: curve of first compound; for viability, T/C: stronger effect = lower value
Protocol: Multicellular complex tumor spheroid response to apoptosis pathway targeting inhibitors Alrizomadlin, Pelcitoclax, and Dasminapant in combination with a variety of drugs and investigational agents in selected tumor cell lines
The MDM2 inhibitor alrizomadlin, the Bcl-2/Bcl-xL inhibitor pelcitoclax, and the IAPs inhibitor dasminapant were evaluated both individually and in combination with standard of care and investigational anticancer small molecules within a complex spheroid model of solid tumors. . Complex spheroids include a stromal component modeled by human endothelial cells (HUVEC) and fibroblasts modeled by human mesenchymal stem cells (MSCs). The concentration ranges selected for each drug and investigational agent were based upon clinically achievable concentrations if the clinical Cmax of the agent was known.
Compounds. The drugs and investigational agents: alrizomadlin (APG-115; NSC831270), pelcitoclax (APG-1252; NSC835773), dasminapant (APG-1387;NSC834197), TAK-243 (NSC785004), copanlisib (NSC809693), olaparib (NSC753686), talazoparib (NSC767125), cobimetinib (NSC 768068), eltanexor (KPT-8602, NSC 794443), abemaciclib (NSC 768073), sotorasib (NSC818433), adagrasib (NSC 831453), MRTX-1133 (NSC 836407), Iadademestat (ORY1001, NSC 806812), and RMC-4630 (NSC839698), were obtained from the NCI Developmental Therapeutics Program Chemical Repository. The FDA-approved anticancer drug set is available from the Developmental Therapeutics Program at https://dtp.cancer.gov/organization/dscb/obtaining/available plates.htm. […] The stock solutions were prepared in dimethyl sulfoxide (DMSO, Sigma-Aldrich, St. Louis, MO, cat. D2650) at 800-fold the tested concentration and stored at -70 degrees C prior to their use. All drugs and investigational agents were tested over a range starting from a high concentration at or near the clinical Cmax and decreasing in half-log increments. If the clinical Cmax for an agent had not been determined, the highest concentration tested was 10 microM.
The patient-derived cancer (PDC) cell lines include five colon adenocarcinomas: 186277-243-T-J2-PDC, 616215-338-R-J1-PDC, 439559-082-T-J2-PDC, 463943-066-T-J2-PDC, and 519858-162-T-J1-PDC; three pancreatic carcinomas: 323965-272-R-J2-PDC, 521955-158-R6-J3-PDC, and 521955-158-R2-J5-PDC; two uterine sarcomas: 327498-152-R-J2-PDC and 993429-296-R-J1-PDC; two rhabdomyosarcomas: 755483-174-R-J1-PDC and 772245-204-R-J1-PDC; two soft tissue sarcomas: 126254-015-R-J1-PDC and 494315-158-R-J1-PDC; two malignant fibrous histiocytomas: 317291-083-R-J1-PDC and 596521-263-R-J1-PDC; two breast carcinomas: 171881-019-R-J1-PDC and 885512-296-R-J2-PDC; and one ovarian carcinoma: 6556581-035-R-J-PDC were obtained from the NCI PDMR, (https://pdmr.cancer.gov). The established cell lines HSSY-2 synovial sarcoma (RRID:CVCL 8719), SYO-1 synovial sarcoma (RRID:CVCL_7146), MPNST malignant peripheral neural sheath tumor were obtained from the Sloan Kettering Institute. The following established cell lines were purchased from the American Type Culture Collection (ATCC, Manassas, VA), Sor the received from the NCI repository:, PANC-1 pancreatic carcinoma (CRL-1469, RRID:CVCL_0480), OVCAR-5 ovarian carcinoma (RRID:CVCL_1628), OVCAR-8 ovarian carcinoma (RRID:CVCL_1629), , MCF-7 breast carcinoma (CRL-12584, RRID:CVCL_0031), MDA-MB-231 breast carcinoma (CRL-12532, RRID:CVCL_0062), NCI-H1876 small cell lung carcinoma (CRL-5902, RRID:CVCL_1503), NCI-H510A small cell lung carcinoma (HTB-184, RRID:CVCL_1565), NCI-H1417 (CRL-5869, RRID:CVCL_1469), and NCI-H196 small cell lung carcinoma (CRL-5823, RRID:CVCL_1509). Dr. Peter Houghton (Greehey Children's Cancer Research Institute, University of Texas Health Science Center, San Antonio, TX) provided Rh-18 rhabdomyosarcoma (RRID:CVCL_1659). Pooled donor human umbilical vein endothelial cells (HUVEC, Lonza, cat. CC-2519) and human mesenchymal stem cells (hMSC, Lonza, cat. PT-2501) were purchased from Lonza (Walkersville, MD).
Cell Culture. […]

[1] = second compound 0.03 µM, first compound 0.00316 µM
[2] = second compound 0.03 µM, first compound 0.01 µM
[3] = second compound 0.03 µM, first compound 0.0316 µM
[4] = second compound 0.03 µM, first compound 0.1 µM
[5] = second compound 0.0949 µM, first compound 0.00316 µM
[6] = second compound 0.0949 µM, first compound 0.01 µM
[7] = second compound 0.0949 µM, first compound 0.0316 µM
[8] = second compound 0.0949 µM, first compound 0.1 µM
[9] = second compound 0.3 µM, first compound 0.00316 µM
[10] = second compound 0.3 µM, first compound 0.01 µM
[11] = second compound 0.3 µM, first compound 0.0316 µM
[12] = second compound 0.3 µM, first compound 0.1 µM
[13] = second compound 0.949 µM, first compound 0.00316 µM
[14] = second compound 0.949 µM, first compound 0.01 µM
[15] = second compound 0.949 µM, first compound 0.0316 µM
[16] = second compound 0.949 µM, first compound 0.1 µM
[17] = second compound 3 µM, first compound 0.00316 µM
[18] = second compound 3 µM, first compound 0.01 µM
[19] = second compound 3 µM, first compound 0.0316 µM
[20] = second compound 3 µM, first compound 0.1 µM

COc1c(OCCCN2CCOCC2)ccc2c3n(c(=NC(=O)c4cnc(N)nc4)nc12)CCN3 + CCN1C(C(=O)NC23CCC(C(=O)O)(CC2)CC3)C(c2cccc(Cl)c2F)C2(C(=O)Nc3cc(Cl)ccc32)C12CCCCC2
IC50 (second compound 0.03 µM): 25.4 nM
IC50 (second compound 0.0949 µM): 29.7 nM
IC50 (second compound 0.3 µM): 38.4 nM
IC50 (second compound 0.949 µM): 27.2 nM
IC50 (second compound 3 µM): 20.9 nM
viability, T/C [1]: 66.2%
viability, T/C [2]: 58.8%
viability, T/C [3]: 47%
viability, T/C [4]: 37.1%
viability, T/C (second compound 0.03 µM, first compound 0.316 µM): 25.9%
viability, T/C (second compound 0.03 µM, first compound 1 µM): 14.6%
viability, T/C [5]: 75.6%
viability, T/C [6]: 58.2%
viability, T/C [7]: 51.5%
viability, T/C [8]: 36.5%
viability, T/C (second compound 0.0949 µM, first compound 0.316 µM): 30.3%
viability, T/C (second compound 0.0949 µM, first compound 1 µM): 17.4%
viability, T/C [9]: 77.3%
viability, T/C [10]: 64.1%
viability, T/C [11]: 55%
viability, T/C [12]: 36.5%
viability, T/C (second compound 0.3 µM, first compound 0.316 µM): 24.4%
viability, T/C (second compound 0.3 µM, first compound 1 µM): 17.4%
viability, T/C [13]: 81.3%
viability, T/C [14]: 60.4%
viability, T/C [15]: 52.2%
viability, T/C [16]: 33.2%
viability, T/C (second compound 0.949 µM, first compound 0.316 µM): 21%
viability, T/C (second compound 0.949 µM, first compound 1 µM): 17.3%
viability, T/C [17]: 74%
viability, T/C [18]: 62%
viability, T/C [19]: 43%
viability, T/C [20]: 28%
viability, T/C (second compound 3 µM, first compound 0.316 µM): 19.1%
viability, T/C (second compound 3 µM, first compound 1 µM): 15.6%

NC(=O)C(=Cn1cnc(-c2cc(C(F)(F)F)cc(C(F)(F)F)c2)n1)c1cncnc1 + CCN1C(C(=O)NC23CCC(C(=O)O)(CC2)CC3)C(c2cccc(Cl)c2F)C2(C(=O)Nc3cc(Cl)ccc32)C12CCCCC2
IC50 (second compound 0.03 µM): 172 nM
IC50 (second compound 0.0949 µM): 139 nM
IC50 (second compound 0.3 µM): 198 nM
IC50 (second compound 0.949 µM): 88 nM
IC50 (second compound 3 µM): 80.8 nM
viability, T/C (second compound 0.03 µM, first compound 0.000949 µM): 64.2%
viability, T/C (second compound 0.03 µM, first compound 0.003 µM): 78.6%
viability, T/C (second compound 0.03 µM, first compound 0.00949 µM): 66.9%
viability, T/C (second compound 0.03 µM, first compound 0.03 µM): 64%
viability, T/C (second compound 0.03 µM, first compound 0.0949 µM): 56.2%
viability, T/C (second compound 0.03 µM, first compound 0.3 µM): 43.7%
viability, T/C (second compound 0.0949 µM, first compound 0.000949 µM): 75%
viability, T/C (second compound 0.0949 µM, first compound 0.003 µM): 90.7%
viability, T/C (second compound 0.0949 µM, first compound 0.00949 µM): 79.7%
viability, T/C (second compound 0.0949 µM, first compound 0.03 µM): 71%
viability, T/C (second compound 0.0949 µM, first compound 0.0949 µM): 55.5%
viability, T/C (second compound 0.0949 µM, first compound 0.3 µM): 40.1%
viability, T/C (second compound 0.3 µM, first compound 0.000949 µM): 90.9%
viability, T/C (second compound 0.3 µM, first compound 0.003 µM): 99.1%
viability, T/C (second compound 0.3 µM, first compound 0.00949 µM): 90.9%
viability, T/C (second compound 0.3 µM, first compound 0.03 µM): 79.3%
viability, T/C (second compound 0.3 µM, first compound 0.0949 µM): 64.8%
viability, T/C (second compound 0.3 µM, first compound 0.3 µM): 42%
viability, T/C (second compound 0.949 µM, first compound 0.000949 µM): 95.2%
viability, T/C (second compound 0.949 µM, first compound 0.003 µM): 97%
viability, T/C (second compound 0.949 µM, first compound 0.00949 µM): 89.3%
viability, T/C (second compound 0.949 µM, first compound 0.03 µM): 71.6%
viability, T/C (second compound 0.949 µM, first compound 0.0949 µM): 47.8%
viability, T/C (second compound 0.949 µM, first compound 0.3 µM): 42.5%
viability, T/C (second compound 3 µM, first compound 0.000949 µM): 93.9%
viability, T/C (second compound 3 µM, first compound 0.003 µM): 77.8%
viability, T/C (second compound 3 µM, first compound 0.00949 µM): 66.1%
viability, T/C (second compound 3 µM, first compound 0.03 µM): 56%
viability, T/C (second compound 3 µM, first compound 0.0949 µM): 50.7%
viability, T/C (second compound 3 µM, first compound 0.3 µM): 42.6%

NC1CCC(NC2CC2c2ccccc2)CC1 (stereo not given) + CCN1C(C(=O)NC23CCC(C(=O)O)(CC2)CC3)C(c2cccc(Cl)c2F)C2(C(=O)Nc3cc(Cl)ccc32)C12CCCCC2
IC50 (second compound 0.03 µM): > 100 nM
IC50 (second compound 0.0949 µM): > 100 nM
IC50 (second compound 0.3 µM): > 100 nM
IC50 (second compound 0.949 µM): > 100 nM
IC50 (second compound 3 µM): > 100 nM
viability, T/C (second compound 0.03 µM, first compound 0.000316 µM): 79.1%
viability, T/C (second compound 0.03 µM, first compound 0.001 µM): 72.2%
viability, T/C [1]: 67.4%
viability, T/C [2]: 74.8%
viability, T/C [3]: 87%
viability, T/C [4]: 82.7%
viability, T/C (second compound 0.0949 µM, first compound 0.000316 µM): 98.7%
viability, T/C (second compound 0.0949 µM, first compound 0.001 µM): 87.6%
viability, T/C [5]: 92.6%
viability, T/C [6]: 91.5%
viability, T/C [7]: 63.7%
viability, T/C [8]: 82.7%
viability, T/C (second compound 0.3 µM, first compound 0.000316 µM): 81.7%
viability, T/C (second compound 0.3 µM, first compound 0.001 µM): 85.7%
viability, T/C [9]: 83.8%
viability, T/C [10]: 90.8%
viability, T/C [11]: 69.5%
viability, T/C [12]: 75%
viability, T/C (second compound 0.949 µM, first compound 0.000316 µM): 87.9%
viability, T/C (second compound 0.949 µM, first compound 0.001 µM): 87.7%
viability, T/C [13]: 98%
viability, T/C [14]: 74.2%
viability, T/C [15]: 72.5%
viability, T/C [16]: 66.7%
viability, T/C (second compound 3 µM, first compound 0.000316 µM): 83.9%
viability, T/C (second compound 3 µM, first compound 0.001 µM): 81.4%
viability, T/C [17]: 60.3%
viability, T/C [18]: 59.8%
viability, T/C [19]: 68.9%
viability, T/C [20]: 65.8%
